From patent US20190231686A1, “METHODS FOR TREATING CYSTIC FIBROSIS AND OTHER DISEASES AFFECTING MUCOSAL SURFACES” (priority 2016, published 2019)

Tests used:
[1] = test system: patients with cystic fibrosis; settings: single inhalation, CF patients; cited from earlier work
[2] = test system: mucoid CF clinical isolates of P. aeruginosa; settings: elevated CO2 concentrations; titration with bicarbonate

N=C(N)NCCC[C@H](N)C(=O)O [L-arginine]
Exhaled NO [1]: significantly increased
FEV1 [1]: sustained improvement

reduced glutathione [GSH]
Ability of P. aeruginosa to utilize nitrate, nitrite or nitric oxide for respiration to grow (P. aeruginosa; low oxygen conditions such as within biofilm): limits the ability of P. aeruginosa to utilize nitrate, nitrite or nitric oxide for respiration
Aerobic growth of P. aeruginosa (P. aeruginosa; nitrite and nitric oxide in the presence of GSH): inhibit aerobic growth of P. aeruginosa

O=C(O)O [bicarbonate]
Alginate expression [2]: suppressed
